Results published in patent publication US10759810B2 (AO “TATKHIMFARMPREPARATY”, priority 2016, dated 2020).
≈ marks a conversion by molar mass, not a printed value.

Assays:
[1] = tested on: gram-positive microorganisms; assay: Antibacterial activity (MIC), gram-positive strains; format: cell-based; details: in words, versus comparison drugs
Description: (§1) Measurement of antibacterial activity was carried out on the strains of Staphylococcus aureus ATCC 29213 (museum strain), Staphylococcus epidermidis (clinical isolate), Micrococcus luteus (clinical isolate), Bacillus subtilis 168 (museum strain), Escherichia coli ATCC 25922 (museum strain), Salmonella typhimurium TA100 (museum strain), Pseudomonas aeruginosa ATCC 27853 (museum strain). A comparative assessment of the spectrum of antibacterial action on reference strains and clinical isolates of gram-positive microorganisms was carried out using a micromethod for determining the minimum inhibitory concentration (MIC) using serial dilutions in Mueller-Hinton broth using 96-well sterile plates.
(§2) The first lowest concentration of the antibiotic (from a series of successive dilutions), where bacterial growth is not visually determined, is considered to be the minimum inhibitory concentration (MIC).
(§3) For the preparation of inoculum (infectious material used for artificial contamination), intended for the study of antibacterial activity, was used a pure daily culture of bacteria grown on a dense nutrient medium (agar LB medium). […] The inoculum was used for 15 minutes after preparation; the purity of the bacterial strains was monitored before each experiment. […]

[2] = tested on: Salmonella typhimurium TA100 (museum strain); assay: MIC, serial dilutions in Mueller-Hinton broth; format: cell-based
Description: as §1, §2
(§4) For the preparation of inoculum (infectious material used for artificial contamination), intended for the study of antibacterial activity, was used a pure daily culture of bacteria grown on a dense nutrient medium (agar LB medium). In a sterile isotonic solution of sodium chloride, a suspension of microorganisms was prepared, adjusting the inoculum density to 0.5 according to the McFarland standard (1.5·10^8 CFU/ml). Then, the resulting inoculum was diluted to a concentration of 10^7 CFU/ml with LB-broth. The inoculum was used for 15 minutes after preparation; the purity of the bacterial strains was monitored before each experiment.
(§5) 100 μl of Muller-Hinton broth was added to the wells of each plate; the test base was introduced into the first well at a concentration of 128 μg/ml in a volume of 100 μl and its concentration was adjusted to 0.25 μg/ml by consecutive two-fold dilution. […] Each preparation in the experiment was titrated three times. […] In addition, the purity of nutrient media and solvents was monitored. The plates were incubated in a thermostat at […] for 24 hours.
(§6) The growth of cultures was assessed visually, comparing the growth of microorganisms in the presence of test compounds with the growth of culture without them.

[3] = tested on: Staphylococcus aureus ATCC 29213 (museum strain); assay: MIC, serial dilutions in Mueller-Hinton broth; format: cell-based
Description: as §1, §2, §4, §5, §6

[4] = tested on: Escherichia coli ATCC 25922 (museum strain); assay: MIC, serial dilutions in Mueller-Hinton broth; format: cell-based
Description: as §1, §2, §4, §5, §6

[5] = tested on: Staphylococcus epidermidis (clinical isolate); assay: MIC, serial dilutions in Mueller-Hinton broth; format: cell-based
Description: as §1, §2, §4, §5, §6

[6] = tested on: Bacillus subtilis 168 (museum strain); assay: MIC, serial dilutions in Mueller-Hinton broth; format: cell-based
Description: as §1, §2, §4, §5, §6

[7] = tested on: Micrococcus luteus (clinical isolate); assay: MIC, serial dilutions in Mueller-Hinton broth; format: cell-based
Description: as §1, §2, §4, §5, §6

[8] = tested on: Pseudomonas aeruginosa ATCC 27853 (museum strain); assay: MIC, serial dilutions in Mueller-Hinton broth; format: cell-based
Description: as §1, §2, §4, §5, §6

[9] = tested on: microorganism strains under study; assay: Antibacterial activity (MIC), whole strain panel; format: cell-based; details: in words, from Table 1
Description: as §1, §2, §3

[10] = tested on: S. aureus MRSA 1173; assay: MIC on clinical strain; format: cell-based, Staphylococcus aureus; details: Staphylococcus aureus, MRSA, read-out: The value of the MIC, S. aureus MRSA 1173
Description: as §1, §2, §4, §5, §6

[11] = tested on: S. aureus MRSA 1065; assay: MIC on clinical strain; format: cell-based, Staphylococcus aureus; details: Staphylococcus aureus, MRSA, read-out: The value of the MIC, S. aureus MRSA 1065
Description: as §1, §2, §4, §5, §6

[12] = tested on: S. aureus MRSA 1131; assay: MIC on clinical strain; format: cell-based, Staphylococcus aureus; details: Staphylococcus aureus, MRSA, read-out: The value of the MIC, S. aureus MRSA 1131
Description: as §1, §2, §4, §5, §6

[13] = tested on: S. aureus MRSA 967; assay: MIC on clinical strain; format: cell-based, Staphylococcus aureus; details: Staphylococcus aureus, MRSA, read-out: The value of the MIC, S. aureus MRSA 967
Description: as §1, §2, §4, §5, §6

[14] = tested on: S. aureus MRSA 981; assay: MIC on clinical strain; format: cell-based, Staphylococcus aureus; details: Staphylococcus aureus, MRSA, read-out: The value of the MIC, S. aureus MRSA 981
Description: as §1, §2, §4, §5, §6

[15] = tested on: S. aureus MRSA 1130; assay: MIC on clinical strain; format: cell-based, Staphylococcus aureus; details: Staphylococcus aureus, MRSA, read-out: The value of the MIC, S. aureus MRSA 1130
Description: as §1, §2, §4, §5, §6

[16] = tested on: S. aureus MRSA 1143; assay: MIC on clinical strain; format: cell-based, Staphylococcus aureus; details: Staphylococcus aureus, MRSA, read-out: The value of the MIC, S. aureus MRSA 1143
Description: as §1, §2, §4, §5, §6

[17] = tested on: S. aureus MRSA 1053; assay: MIC on clinical strain; format: cell-based, Staphylococcus aureus; details: Staphylococcus aureus, MRSA, read-out: The value of the MIC, S. aureus MRSA 1053
Description: as §1, §2, §4, §5, §6

[18] = tested on: S. aureus MRSA 2020; assay: MIC on clinical strain; format: cell-based, Staphylococcus aureus; details: Staphylococcus aureus, MRSA, read-out: The value of the MIC, S. aureus MRSA 2020
Description: as §1, §2, §4, §5, §6

[19] = tested on: S. aureus MRSA 1163; assay: MIC on clinical strain; format: cell-based, Staphylococcus aureus; details: Staphylococcus aureus, MRSA, read-out: The value of the MIC, S. aureus MRSA 1163
Description: as §1, §2, §4, §5, §6

[20] = tested on: S. aureus MRSA 1168; assay: MIC on clinical strain; format: cell-based, Staphylococcus aureus; details: Staphylococcus aureus, MRSA, read-out: The value of the MIC, S. aureus MRSA 1168
Description: as §1, §2, §4, §5, §6

[21] = tested on: S. aureus MRSA 983; assay: MIC on clinical strain; format: cell-based, Staphylococcus aureus; details: Staphylococcus aureus, MRSA, read-out: The value of the MIC, S. aureus MRSA 983
Description: as §1, §2, §4, §5, §6

[22] = inoculum 10^7 CFU/ml, gram-negative
[23] = inoculum 10^7 CFU/ml, gram-positive

For “1-cyclopropyl-6-fluoro-7-(4-((5-hydroxy-2,4-bis(hydroxymethyl)-6-methylpyridine-3-yl) methyl) piperazinyl)-4-oxo-1,4-dihydroquinolin-3-carboxylic acid [Compound I-9]”, the “antibacterial action with respect to gram-positive microorganisms” value [1] was “comparable with the comparison drugs”, the “MIC, S. typhimurium” value [2, 22] was 4 µg/mL and the “MIC, S. aureus” value [3, 23] was 0.5 µg/mL. The “MIC, E. coli” value [4, 22] was 64 µg/mL, the “MIC, S. epidermidis” value [5, 23] was 8 µg/mL and the “MIC, B. subtilis” value [6, 23] was 4 µg/mL. The “MIC, M. luteus” value [7, 23] was 2 µg/mL, the “MIC, P. aerugenosa” value [8, 22] was over 64 µg/mL and the “antibacterial activity against the microorganism strains under study” value [9] was “most active”.

`CN[C@H](CC(C)C)C(=O)N[C@H]1C(=O)N[C@@H](CC(N)=O)C(=O)N[C@H]2C(=O)N[C@H]3C(=O)N[C@H](C(=O)N[C@H](C(=O)O)c4cc(O)cc(O)c4-c4cc3ccc4O)[C@H](O)c3ccc(c(Cl)c3)Oc3cc2cc(c3O[C@@H]2O[C@H](CO)[C@@H](O)[C@H](O)[C@H]2O[C@H]2C[C@](C)(N)[C@H](O)[C@H](C)O2)Oc2ccc(cc2Cl)[C@H]1O` [Vancomycin, vancomycin] gave an MIC ([2]; Salmonella enterica, TYPHIMURIUM, read-out: MIC, S. typhimurium) of 64 µg/mL (≈ 44.2 µM), an MIC ([3]; Staphylococcus aureus, ATCC29213, read-out: MIC, S. aureus) of 4 µg/mL (≈ 2.76 µM) and an MIC ([4]; Escherichia coli, ATCC25922, read-out: MIC, E. coli) of 64 µg/mL (≈ 44.2 µM). It also gave an MIC ([5]; Staphylococcus epidermidis, read-out: MIC, S. epidermidis) of 4 µg/mL (≈ 2.76 µM), an MIC ([6]; Bacillus subtilis, read-out: MIC, B. subtilis) of 64 µg/mL (≈ 44.2 µM) and an MIC ([7]; Micrococcus luteus, read-out: MIC, M. luteus) of 4 µg/mL (≈ 2.76 µM). The MIC ([8]; Pseudomonas aeruginosa, ATCC27853, read-out: MIC, P. aerugenosa) was over 64 µg/mL, the MIC [10] was 2 µg/mL (≈ 1.38 µM) and the MIC [11] was 1 µg/mL (≈ 0.69 µM). The MIC [12] was 0.5 µg/mL (≈ 0.345 µM), the MIC [13] was 4 µg/mL (≈ 2.76 µM) and the MIC [14] was 2 µg/mL (≈ 1.38 µM). It also gave an MIC [15] of 1 µg/mL (≈ 0.69 µM), an MIC [16] of 1 µg/mL (≈ 0.69 µM) and an MIC [17] of 2 µg/mL (≈ 1.38 µM). For the same compound, the MIC [18] was 0.5 µg/mL (≈ 0.345 µM), the MIC [19] was 2 µg/mL (≈ 1.38 µM) and the MIC [20] was 0.5 µg/mL (≈ 0.345 µM). For the same compound, the MIC [21] was 2 µg/mL (≈ 1.38 µM).
